Assay results reported in paper PMC5218480 (PLoS ONE, 2017).

Tested on: MV-4-11 cells
Assay: Gene expression microarray analysis (Affymetrix PrimeView) and GSEA
Format: cell-based, human
Design: RFU PODN (11730768_x_at) / Fold change /veh PODN (11730768_x_at) / RFU LINC00158 (11744669_a_at) / Fold change /veh LINC00158 (11744669_a_at) / RFU DUSP10 (11751237_a_at) / Fold change /veh DUSP10 (11751237_a_at) / RFU ID3 (11757404_x_at) / Fold change /veh ID3 (11757404_x_at) / RFU PLEKHG5 (11737974_s_at) / Fold change /veh PLEKHG5 (11737974_s_at) / RFU LRRC4B (11730491_at) / Fold change /veh LRRC4B (11730491_at) / RFU GIMAP4 (11747438_a_at) / Fold change /veh GIMAP4 (11747438_a_at) / RFU KRT8 (11758183_x_at) / Fold change /veh KRT8 (11758183_x_at) / RFU CNN1 (11734310_a_at) / Fold change /veh CNN1 (11734310_a_at) / RFU VPS37D (11726825_at) / Fold change /veh VPS37D (11726825_at) / RFU C10orf10 (11716522_x_at) / Fold change /veh C10orf10 (11716522_x_at) / RFU KIR2DL2 /// KIR2DL4 /// KIR2DL5A /// KIR2DL5B /// KIR2DS1 /// KIR2DS2 /// KIR2DS3 /// KIR2DS4 /// KIR3DL3 /// KIR3DL3 /// KIR3DS1 (11738374_at) / Fold change /veh KIR2DL2 /// KIR2DL4 /// KIR2DL5A /// KIR2DL5B /// KIR2DS1 /// KIR2DS2 /// KIR2DS3 /// KIR2DS4 /// KIR3DL3 /// KIR3DL3 /// KIR3DS1 (11738374_at) / RFU C1QL1 (11718748_at) / Fold change /veh C1QL1 (11718748_at) / RFU TMPRSS4 (11747572_a_at) / Fold change /veh TMPRSS4 (11747572_a_at) / RFU HAMP (11756126_x_at) / Fold change /veh HAMP (11756126_x_at) / RFU RNFT2 (11725882_a_at) / Fold change /veh RNFT2 (11725882_a_at) / RFU NR4A2 (11747474_a_at) / Fold change /veh NR4A2 (11747474_a_at) / RFU ABCC12 (11746883_a_at) / Fold change /veh ABCC12 (11746883_a_at) / RFU TMEM136 (11760407_x_at) / Fold change /veh TMEM136 (11760407_x_at) / RFU CLDN22 /// WWC2 (11732394_at) / Fold change /veh CLDN22 /// WWC2 (11732394_at) / RFU HLA-DPB1 (11760878_x_at) / Fold change /veh HLA-DPB1 (11760878_x_at) / RFU SPINT1 (11716480_a_at) / Fold change /veh SPINT1 (11716480_a_at) / RFU GAP43 (11754022_s_at) / Fold change /veh GAP43 (11754022_s_at) / RFU A4GNT (11735810_at) / Fold change /veh A4GNT (11735810_at) / RFU PRB3 (11715151_x_at) / Fold change /veh PRB3 (11715151_x_at) / RFU TUBB4B (11761932_at) / Fold change /veh TUBB4B (11761932_at) / RFU CAPN14 (11732068_a_at) / Fold change /veh CAPN14 (11732068_a_at) / RFU TMCC2 (11721928_a_at) / Fold change /veh TMCC2 (11721928_a_at) / RFU IRGQ (11745062_a_at) / Fold change /veh IRGQ (11745062_a_at) / RFU FAM174B (11720279_a_at) / Fold change /veh FAM174B (11720279_a_at) / RFU TMPRSS4 (11748680_a_at) / Fold change /veh TMPRSS4 (11748680_a_at) / RFU FAM212B (11763350_a_at) / Fold change /veh FAM212B (11763350_a_at) / RFU PLEKHG5 (11743358_a_at) / Fold change /veh PLEKHG5 (11743358_a_at) / RFU ZSCAN30 (11745921_a_at) / Fold change /veh ZSCAN30 (11745921_a_at) / RFU CMKLR1 (11741424_a_at) / Fold change /veh CMKLR1 (11741424_a_at) / RFU LOC101060620 /// MAPK8IP1 (11723275_at) / Fold change /veh LOC101060620 /// MAPK8IP1 (11723275_at) / RFU SPTSSB (11747773_x_at) / Fold change /veh SPTSSB (11747773_x_at) / RFU PRSS12 (11739890_at) / Fold change /veh PRSS12 (11739890_at) / RFU BIN1 (11741810_x_at) / Fold change /veh BIN1 (11741810_x_at) / RFU WNT11 (11732464_a_at) / Fold change /veh WNT11 (11732464_a_at) / RFU C10orf10 (11716521_a_at) / Fold change /veh C10orf10 (11716521_a_at) / RFU C5orf56 (11738089_at) / Fold change /veh C5orf56 (11738089_at) / RFU CYB561 (11721691_x_at) / Fold change /veh CYB561 (11721691_x_at) / RFU ANKRD19P (11752326_a_at) / Fold change /veh ANKRD19P (11752326_a_at) / RFU OR2T12 /// OR2T33 /// OR2T8 (11738714_s_at) / Fold change /veh OR2T12 /// OR2T33 /// OR2T8 (11738714_s_at) / RFU VCAN (11748164_a_at) / Fold change /veh VCAN (11748164_a_at) / RFU JSRP1 (11732532_at) / Fold change /veh JSRP1 (11732532_at) / RFU KRTAP10-11 (11738290_x_at) / Fold change /veh KRTAP10-11 (11738290_x_at) / RFU MYO3A (11730013_a_at) / Fold change /veh MYO3A (11730013_a_at) / RFU EBF3 (11725865_a_at) / Fold change /veh EBF3 (11725865_a_at) / RFU CAMK2N1 (11719241_x_at) / Fold change /veh CAMK2N1 (11719241_x_at) / RFU C5orf56 (11738088_a_at) / Fold change /veh C5orf56 (11738088_a_at) / RFU OLFML3 (11715873_a_at) / Fold change /veh OLFML3 (11715873_a_at) / RFU LOC100653217 /// NTM (11731650_a_at) / Fold change /veh LOC100653217 /// NTM (11731650_a_at) / RFU MAPK11 (11762145_a_at) / Fold change /veh MAPK11 (11762145_a_at) / RFU FIZ1 (11724087_x_at) / Fold change /veh FIZ1 (11724087_x_at) / RFU OASL (11726364_x_at) / Fold change /veh OASL (11726364_x_at) / RFU SOX15 (11748057_x_at) / Fold change /veh SOX15 (11748057_x_at) / RFU CD79A (11719716_a_at) / Fold change /veh CD79A (11719716_a_at) / RFU HIST1H1D (11736915_at) / Fold change /veh HIST1H1D (11736915_at) / RFU CASKIN2 (11723855_a_at) / Fold change /veh CASKIN2 (11723855_a_at) / RFU LOC730098 (11760151_x_at) / Fold change /veh LOC730098 (11760151_x_at) / RFU OR4N2 (11742367_at) / Fold change /veh OR4N2 (11742367_at) / RFU PRRT2 (11749266_a_at) / Fold change /veh PRRT2 (11749266_a_at) / RFU SNX32 (11753110_a_at) / Fold change /veh SNX32 (11753110_a_at) / RFU CDHR5 (11726645_a_at) / Fold change /veh CDHR5 (11726645_a_at) / RFU RCAN1 (11760418_a_at) / Fold change /veh RCAN1 (11760418_a_at) / RFU FAM167A (11723789_a_at) / Fold change /veh FAM167A (11723789_a_at) / RFU FAM26E (11764081_at) / Fold change /veh FAM26E (11764081_at) / RFU ISYNA1 (11749810_s_at) / Fold change /veh ISYNA1 (11749810_s_at) / RFU ACY1 (11761880_at) / Fold change /veh ACY1 (11761880_at) / RFU 11764098_at / Fold change /veh 11764098_at / RFU SAMD14 (11745864_x_at) / Fold change /veh SAMD14 (11745864_x_at) / RFU NPB (11741838_a_at) / Fold change /veh NPB (11741838_a_at) / RFU TMPRSS6 (11731388_a_at) / Fold change /veh TMPRSS6 (11731388_a_at) / RFU KRTAP10-2 (11738614_at) / Fold change /veh KRTAP10-2 (11738614_at) / RFU ARHGAP8 /// PRR5-ARHGAP8 (11727945_x_at) / Fold change /veh ARHGAP8 /// PRR5-ARHGAP8 (11727945_x_at) / RFU KRTAP5-7 /// NADSYN1 (11734609_at) / Fold change /veh KRTAP5-7 /// NADSYN1 (11734609_at) / RFU RASL12 (11751679_a_at) / Fold change /veh RASL12 (11751679_a_at) / RFU CDKN2B (11736163_a_at) / Fold change /veh CDKN2B (11736163_a_at) / RFU PRF1 (11729649_at) / Fold change /veh PRF1 (11729649_at) / RFU, ZNF638 /// ZNF638-IT1 / Fold change vs veh, ZNF638 /// ZNF638-IT1 / RFU, PANK3 / Fold change vs veh, PANK3 / RFU, SH3YL1 / Fold change vs veh, SH3YL1 / RFU, ZEB2 / Fold change vs veh, ZEB2 / RFU, NRIP1 / Fold change vs veh, NRIP1 / RFU, PTTG1IP / Fold change vs veh, PTTG1IP / RFU, CAPN2 / Fold change vs veh, CAPN2 / RFU, MED14 / Fold change vs veh, MED14 / RFU, SNORA58 / Fold change vs veh, SNORA58 / RFU, C1orf63 / Fold change vs veh, C1orf63 / RFU, LRRFIP1 / Fold change vs veh, LRRFIP1 / RFU, NDUFAF7 / Fold change vs veh, NDUFAF7 / RFU, SLC12A2 / Fold change vs veh, SLC12A2 / RFU, IBTK / Fold change vs veh, IBTK / RFU, ESF1 / Fold change vs veh, ESF1 / Fold change vs veh, TMEM50B / RFU, TAOK1 / Fold change vs veh, TAOK1 / RFU, ACBD3 / Fold change vs veh, ACBD3 / RFU, TMA16 / Fold change vs veh, TMA16 / RFU, RWDD3 / Fold change vs veh, RWDD3 / RFU, BCAT1 / Fold change vs veh, BCAT1 / RFU, EDEM3 / Fold change vs veh, EDEM3 / RFU, TMEM33 / Fold change vs veh, TMEM33 / RFU, WDR75 / Fold change vs veh, WDR75 / RFU, AHCTF1 / Fold change vs veh, AHCTF1 / RFU, TFRC / Fold change vs veh, TFRC / RFU, ZDHHC17 / Fold change vs veh, ZDHHC17 / RFU, NOM1 / Fold change vs veh, NOM1 / RFU, ARL8B / Fold change vs veh, ARL8B / RFU, ZBTB11 / Fold change vs veh, ZBTB11 / RFU, TAMM41 / Fold change vs veh, TAMM41 / RFU, KIAA1704 /// LOC100996395 / Fold change vs veh, KIAA1704 /// LOC100996395 / RFU, ING1 / Fold change vs veh, ING1 / RFU, TRMT61B / Fold change vs veh, TRMT61B / RFU, FUBP3 / Fold change vs veh, FUBP3 / RFU, TP53 / Fold change vs veh, TP53 / RFU, TNKS2 / Fold change vs veh, TNKS2 / RFU, ZFP14 / Fold change vs veh, ZFP14 / RFU, ACTR2 / Fold change vs veh, ACTR2 / RFU, PPP3R1 / Fold change vs veh, PPP3R1 / RFU, PIK3R1 / Fold change vs veh, PIK3R1 / RFU, HNRNPA1 / Fold change vs veh, HNRNPA1 / RFU, RNF170 / Fold change vs veh, RNF170 / RFU, ZNF28 / Fold change vs veh, ZNF28 / RFU, RNGTT / Fold change vs veh, RNGTT / RFU, OGT / Fold change vs veh, OGT / RFU, BRD1 / Fold change vs veh, BRD1 / RFU, MARS / Fold change vs veh, MARS / RFU, ZNF655 / Fold change vs veh, ZNF655 / RFU, FAHD1 / Fold change vs veh, FAHD1 / RFU, BDP1 / Fold change vs veh, BDP1 / RFU, LRRCC1 / Fold change vs veh, LRRCC1 / RFU, ARID1A / Fold change vs veh, ARID1A / RFU, ZNF146 / Fold change vs veh, ZNF146 / RFU, ZNF330 / Fold change vs veh, ZNF330 / RFU, GPN3 / Fold change vs veh, GPN3 / RFU, C9orf123 / Fold change vs veh, C9orf123 / RFU, N4BP2L2 / Fold change vs veh, N4BP2L2 / RFU, ARFIP1 / Fold change vs veh, ARFIP1 / RFU, FAM179B / Fold change vs veh, FAM179B / RFU, BCL10 / Fold change vs veh, BCL10 / RFU, UHRF1BP1L / Fold change vs veh, UHRF1BP1L / RFU, BET1 / Fold change vs veh, BET1 / RFU, CNOT2 / Fold change vs veh, CNOT2 / RFU, ZNF268 / Fold change vs veh, ZNF268 / Fold change vs veh, ZNF507 / RFU, DGCR2 / Fold change vs veh, DGCR2 / RFU, WDSUB1 / Fold change vs veh, WDSUB1 / Fold change vs veh, HSP90B1 /// MIR3652 / RFU, ADSS / Fold change vs veh, ADSS / RFU, GK / Fold change vs veh, GK / RFU, ZNF148 / Fold change vs veh, ZNF148 / RFU, TAF9 / Fold change vs veh, TAF9 / RFU, SLC1A5 / Fold change vs veh, SLC1A5 / RFU, SLMO2 / Fold change vs veh, SLMO2 / RFU, ABCC4 / Fold change vs veh, ABCC4 / RFU, LOC101060439 /// RAP1B / Fold change vs veh, LOC101060439 /// RAP1B / RFU, RFX7 / Fold change vs veh, RFX7 / RFU, GTPBP10 / Fold change vs veh, GTPBP10 / RFU, CNEP1R1 / Fold change vs veh, CNEP1R1 / RFU, BIVM-ERCC5 /// ERCC5 / Fold change vs veh, BIVM-ERCC5 /// ERCC5 / RFU, ILF3 / Fold change vs veh, ILF3 / RFU 11762660_at / Fold change /veh 11762660_at / RFU VCAN (11757783_s_at) / Fold change /veh VCAN (11757783_s_at) / RFU DDX43 (11728927_at) / Fold change /veh DDX43 (11728927_at) / RFU KRT8 (11758188_x_at) / Fold change /veh KRT8 (11758188_x_at) / RFU NKD1 (11759106_at) / Fold change /veh NKD1 (11759106_at) / RFU SRD5A1 (11742802_a_at) / Fold change /veh SRD5A1 (11742802_a_at) / RFU TPSAB1 /// TPSB2 (11721975_s_at) / Fold change /veh TPSAB1 /// TPSB2 (11721975_s_at) / RFU GSTM3 (11746129_a_at) / Fold change /veh GSTM3 (11746129_a_at) / RFU IL23R (11737362_x_at) / Fold change /veh IL23R (11737362_x_at) / RFU TMEM51 (11727254_a_at) / Fold change /veh TMEM51 (11727254_a_at) / RFU PIWIL2 (11732686_x_at) / Fold change /veh PIWIL2 (11732686_x_at) / RFU ORM1 (11744905_x_at) / Fold change /veh ORM1 (11744905_x_at) / RFU CCDC152 (11743942_at) / Fold change /veh CCDC152 (11743942_at) / RFU ECM1 (11717891_a_at) / Fold change /veh ECM1 (11717891_a_at) / RFU IL23R (11748794_a_at) / Fold change /veh IL23R (11748794_a_at) / RFU TNFAIP8L3 (11732012_x_at) / Fold change /veh TNFAIP8L3 (11732012_x_at) / RFU MBOAT4 (11741988_at) / Fold change /veh MBOAT4 (11741988_at) / RFU 11764193_at / Fold change /veh 11764193_at / RFU TMEM53 (11763286_at) / Fold change /veh TMEM53 (11763286_at) / RFU MAGEB2 (11727129_at) / Fold change /veh MAGEB2 (11727129_at) / RFU TMEM200A (11744735_a_at) / Fold change /veh TMEM200A (11744735_a_at) / RFU CCDC152 (11751479_a_at) / Fold change /veh CCDC152 (11751479_a_at) / RFU FAM211A (11726209_a_at) / Fold change /veh FAM211A (11726209_a_at) / RFU RGS16 (11746705_a_at) / Fold change /veh RGS16 (11746705_a_at) / RFU VCAN (11755009_s_at) / Fold change /veh VCAN (11755009_s_at) / RFU RHOB (11743442_s_at) / Fold change /veh RHOB (11743442_s_at) / RFU RGS16 (11720943_a_at) / Fold change /veh RGS16 (11720943_a_at) / RFU RGS16 (11720944_at) / Fold change /veh RGS16 (11720944_at) / RFU, VPS4B / Fold change vs veh, VPS4B / RFU, CREB1 / Fold change vs veh, CREB1 / RFU, DNAJC13 / Fold change vs veh, DNAJC13 / RFU, GNAQ / Fold change vs veh, GNAQ / RFU, CDK5R1 / Fold change vs veh, CDK5R1 / RFU, ZRANB3 / Fold change vs veh, ZRANB3 / RFU, CUL4A / Fold change vs veh, CUL4A / RFU, CCNY / Fold change vs veh, CCNY / RFU, UFL1 / Fold change vs veh, UFL1 / RFU, COG3 / Fold change vs veh, COG3 / RFU, DIAPH2 / Fold change vs veh, DIAPH2 / RFU, SKA2 / Fold change vs veh, SKA2 / RFU, AFF3 / Fold change vs veh, AFF3 / RFU, LMF1 / Fold change vs veh, LMF1 / RFU, IPO11 / Fold change vs veh, IPO11 / RFU, DFFB / Fold change vs veh, DFFB / RFU, FOXP1 / Fold change vs veh, FOXP1 / RFU, CARD8 / Fold change vs veh, CARD8 / RFU, STRN3 / Fold change vs veh, STRN3 / RFU, ADK / Fold change vs veh, ADK / RFU, RASSF2 / Fold change vs veh, RASSF2 / RFU, WIPF1 / Fold change vs veh, WIPF1 / RFU, LARP1B / Fold change vs veh, LARP1B / RFU, RASA1 / Fold change vs veh, RASA1 / RFU, RB1 / Fold change vs veh, RB1 / RFU, PPFIA1 / Fold change vs veh, PPFIA1 / RFU, MAT2A / Fold change vs veh, MAT2A / RFU, CCT5 / Fold change vs veh, CCT5 / RFU, WDR92 / Fold change vs veh, WDR92 / RFU, CUX1 / Fold change vs veh, CUX1 / RFU, TTC7A / Fold change vs veh, TTC7A / RFU, TMEM135 / Fold change vs veh, TMEM135 / RFU, DEPTOR / Fold change vs veh, DEPTOR / RFU, CPM / Fold change vs veh, CPM / RFU, DNAJB6 / Fold change vs veh, DNAJB6 / RFU, CACNA2D3 / Fold change vs veh, CACNA2D3 / RFU, DTX4 / Fold change vs veh, DTX4 / RFU, TFCP2 / Fold change vs veh, TFCP2 / RFU, GMCL1 /// GMCL1P1 / Fold change vs veh, GMCL1 /// GMCL1P1 / RFU, AEBP2 / Fold change vs veh, AEBP2 / RFU, SNHG1 /// SNORD22 /// SNORD25 /// SNORD26 /// SNORD27 /// SNORD28 /// SNORD29 /// SNORD31 / Fold change vs veh, SNHG1 /// SNORD22 /// SNORD25 /// SNORD26 /// SNORD27 /// SNORD28 /// SNORD29 /// SNORD31 / Fold change (Aza/veh), C12orf56 (ProbeSet 11735607_a_at) / Fold change (ACY-1035/veh), C12orf56 (ProbeSet 11735607_a_at) / Fold change (Aza/veh), FGFR1OP (ProbeSet 11751329_s_at) / Fold change (ACY-1035/veh), FGFR1OP (ProbeSet 11751329_s_at) / Fold change (Aza/veh), VPS36 (ProbeSet 11739960_a_at) / Fold change (ACY-1035/veh), VPS36 (ProbeSet 11739960_a_at) / RFU SYPL1 (11715823_x_at) / Fold change /veh SYPL1 (11715823_x_at) / RFU IGFBP7 (11715501_s_at) / Fold change /veh IGFBP7 (11715501_s_at) / RFU REEP3 (11722064_at) / Fold change /veh REEP3 (11722064_at) / RFU IGLL1 (11728026_x_at) / Fold change /veh IGLL1 (11728026_x_at): dose or concentration left out as unconfirmed
Settings: ProbeSet 11722463_a_at; LIST B

Nc1ncn([C@@H]2O[C@H](CO)[C@@H](O)[C@H]2O)c(=O)n1 [azacitidine]
Fold change vs veh, TNKS2: 0.86
